According to ChEMBL document CHEMBL1201861, “Genomics of Drug Sensitity in Cancer screening data, Wellcome Trust Sanger Institute”:

What follows are molecules tested on COR-L88 (assay: cells). Details: Homo sapiens, COR-L88.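 Note: growth inhibition of COR-L88 cells, read out with a cell viability assay.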
Format: functional, cell-based, Homo sapiens
Description: SANGER: Inhibition of human COR-L88 cell growth in a cell viability assay.

Row | Compound | IC50
1 | O=C1NC(=O)c2c1c(-c1ccccc1Cl)cc1[nH]c3ccc(O)cc3c21 | 1560 nM

These molecules were tested on DJM-1 (assay: cells). Details: Homo sapiens, DJM-1.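 Note: growth inhibition of human DJM-1 cells, read out by a cell viability assay.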
Format: functional, cell-based, Homo sapiens
Description: SANGER: Inhibition of human DJM-1 cell growth in a cell viability assay.

Row | Compound | IC50
2 | O=C1NC(=O)c2c1c(-c1ccccc1Cl)cc1[nH]c3ccc(O)cc3c21 | > 2000 nM

What follows are molecules tested on DMS-114 (assay: cells). Details: Homo sapiens, DMS-114.
Format: functional, cell-based, Homo sapiens

Row | Compound | IC50
3 | O=C1NC(=O)c2c1c(-c1ccccc1Cl)cc1[nH]c3ccc(O)cc3c21 | > 2000 nM

These molecules were tested on EW-11 (assay: cells). Details: Homo sapiens, EW-11.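 Note: growth inhibition of human EW-11 cells, measured with a cell viability assay.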
Format: functional, cell-based, Homo sapiens
Description: SANGER: Inhibition of human EW-11 cell growth in a cell viability assay.

Row | Compound | IC50
4 | O=C1NC(=O)c2c1c(-c1ccccc1Cl)cc1[nH]c3ccc(O)cc3c21 | > 2000 nM

What follows are molecules tested on EW-16 (assay: cells). Details: Homo sapiens, EW-16.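 Note: growth inhibition of human EW-16 cells, read out as cell viability.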
Format: functional, cell-based, Homo sapiens
Description: SANGER: Inhibition of human EW-16 cell growth in a cell viability assay.

Row | Compound | IC50
5 | O=C1NC(=O)c2c1c(-c1ccccc1Cl)cc1[nH]c3ccc(O)cc3c21 | > 2000 nM

The molecules below were run on GB-1 (assay: cells). Details: Homo sapiens, GB-1.
Format: functional, cell-based, Homo sapiens
Description: SANGER: Inhibition of human GB-1 cell growth in a cell viability assay.

Row | Compound | IC50
6 | O=C1NC(=O)c2c1c(-c1ccccc1Cl)cc1[nH]c3ccc(O)cc3c21 | > 2000 nM

Each molecule was assayed on GI-1 (assay: cells). Details: Homo sapiens, GI-1.
Format: functional, cell-based, Homo sapiens
Description: SANGER: Inhibition of human GI-1 cell growth in a cell viability assay.

Row | Compound | IC50
7 | O=C1NC(=O)c2c1c(-c1ccccc1Cl)cc1[nH]c3ccc(O)cc3c21 | > 2000 nM

Each molecule was assayed on GI-ME-N (assay: cells). Details: Homo sapiens, GI-ME-N.
Format: functional, cell-based, Homo sapiens
Description: SANGER: Inhibition of human GI-ME-N cell growth in a cell viability assay.

Row | Compound | IC50
8 | O=C1NC(=O)c2c1c(-c1ccccc1Cl)cc1[nH]c3ccc(O)cc3c21 | 1530 nM

Each molecule was assayed on GOTO (assay: cells). Details: Homo sapiens, GOTO.
Format: functional, cell-based, Homo sapiens
Description: SANGER: Inhibition of human GOTO cell growth in a cell viability assay.

Row | Compound | IC50
9 | O=C1NC(=O)c2c1c(-c1ccccc1Cl)cc1[nH]c3ccc(O)cc3c21 | 666 nM

Each molecule was assayed on GR-ST (assay: cells). Details: Homo sapiens, GR-ST.
Format: functional, cell-based, Homo sapiens
Description: SANGER: Inhibition of human GR-ST cell growth in a cell viability assay.

Row | Compound | IC50
10 | O=C1NC(=O)c2c1c(-c1ccccc1Cl)cc1[nH]c3ccc(O)cc3c21 | 975 nM

The molecules below were run on GT3TKB (assay: cells). Details: Homo sapiens, GT3TKB.
Format: functional, cell-based, Homo sapiens
Description: SANGER: Inhibition of human GT3TKB cell growth in a cell viability assay.

Row | Compound | IC50
11 | O=C1NC(=O)c2c1c(-c1ccccc1Cl)cc1[nH]c3ccc(O)cc3c21 | > 2000 nM

These molecules were tested on HL-60 (assay: cells). Details: Homo sapiens, HL-60.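 Note: growth inhibition of human HL-60 cells, read out with a cell viability assay.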
Format: functional, cell-based, Homo sapiens
Description: SANGER: Inhibition of human HL-60 cell growth in a cell viability assay.

Row | Compound | IC50
12 | O=C1NC(=O)c2c1c(-c1ccccc1Cl)cc1[nH]c3ccc(O)cc3c21 | > 2000 nM

These molecules were tested on KARPAS-45 (assay: cells). Details: Homo sapiens, KARPAS-45.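 Note: inhibition of cell line growth, read out through a viability assay.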
Format: functional, cell-based, Homo sapiens
Description: SANGER: Inhibition of human KARPAS-45 cell growth in a cell viability assay.

Row | Compound | IC50
13 | O=C1NC(=O)c2c1c(-c1ccccc1Cl)cc1[nH]c3ccc(O)cc3c21 | > 2000 nM

The molecules below were run on KE-37 (assay: cells). Details: Homo sapiens, KE-37.
Format: functional, cell-based, Homo sapiens
Description: SANGER: Inhibition of human KE-37 cell growth in a cell viability assay.

Row | Compound | IC50
14 | O=C1NC(=O)c2c1c(-c1ccccc1Cl)cc1[nH]c3ccc(O)cc3c21 | 484 nM

What follows are molecules tested on KGN (assay: cells). Details: Homo sapiens, KGN.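 Note: growth inhibition of KGN cells, read out with a cell viability assay.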
Format: functional, cell-based, Homo sapiens
Description: SANGER: Inhibition of human KGN cell growth in a cell viability assay.

Row | Compound | IC50
15 | O=C1NC(=O)c2c1c(-c1ccccc1Cl)cc1[nH]c3ccc(O)cc3c21 | 1680 nM

What follows are molecules tested on KLE (assay: cells). Details: Homo sapiens.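 Note: growth inhibition of human KLE cells, read out with a cell viability assay.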
Format: functional, cell-based
Description: SANGER: Inhibition of human KLE cell growth in a cell viability assay.

Row | Compound | IC50
16 | O=C1NC(=O)c2c1c(-c1ccccc1Cl)cc1[nH]c3ccc(O)cc3c21 | > 2000 nM

What follows are molecules tested on KS-1 (assay: cells). Details: Homo sapiens.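 Note: growth inhibition of KS-1 cells, read out with a cell viability assay.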
Format: functional, cell-based
Description: SANGER: Inhibition of human KS-1 cell growth in a cell viability assay.

Row | Compound | IC50
17 | O=C1NC(=O)c2c1c(-c1ccccc1Cl)cc1[nH]c3ccc(O)cc3c21 | > 2000 nM

Each molecule was assayed on LAN-6 (assay: cells). Details: Homo sapiens, LAN-6.
Format: functional, cell-based, Homo sapiens
Description: SANGER: Inhibition of human LAN-6 cell growth in a cell viability assay.

Row | Compound | IC50
18 | O=C1NC(=O)c2c1c(-c1ccccc1Cl)cc1[nH]c3ccc(O)cc3c21 | > 2000 nM

The molecules below were run on LB771-HNC (assay: cells). Details: Homo sapiens.
Format: functional, cell-based
Description: SANGER: Inhibition of human LB771-HNC cell growth in a cell viability assay.

Row | Compound | IC50
19 | O=C1NC(=O)c2c1c(-c1ccccc1Cl)cc1[nH]c3ccc(O)cc3c21 | > 2000 nM

What follows are molecules tested on LS-1034 (assay: cells). Details: Homo sapiens, LS-1034.
Format: functional, cell-based, Homo sapiens
Description: SANGER: Inhibition of human LS-1034 cell growth in a cell viability assay.

Row | Compound | IC50
20 | O=C1NC(=O)c2c1c(-c1ccccc1Cl)cc1[nH]c3ccc(O)cc3c21 | > 2000 nM

The molecules below were run on Lu-65 (assay: cells). Details: Homo sapiens, Lu-65.
Format: functional, cell-based, Homo sapiens
Description: SANGER: Inhibition of human LU-65 cell growth in a cell viability assay.

Row | Compound | IC50
21 | O=C1NC(=O)c2c1c(-c1ccccc1Cl)cc1[nH]c3ccc(O)cc3c21 | > 2000 nM

Each molecule was assayed on MC116 (assay: cells). Details: Homo sapiens, MC116.
Format: functional, cell-based, Homo sapiens
Description: SANGER: Inhibition of human MC116 cell growth in a cell viability assay.

Row | Compound | IC50
22 | O=C1NC(=O)c2c1c(-c1ccccc1Cl)cc1[nH]c3ccc(O)cc3c21 | > 2000 nM

These molecules were tested on MMAC-SF (assay: cells). Details: Homo sapiens.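 Note: growth inhibition of human MMAC-SF cells, read out with a cell viability assay.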
Format: functional, cell-based
Description: SANGER: Inhibition of human MMAC-SF cell growth in a cell viability assay.

Row | Compound | IC50
23 | O=C1NC(=O)c2c1c(-c1ccccc1Cl)cc1[nH]c3ccc(O)cc3c21 | > 2000 nM

What follows are molecules tested on MOLT-16 (assay: cells). Details: Homo sapiens, MOLT-16.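 Note: growth inhibition of human MOLT-16 cells, read out with a cell viability assay.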
Format: functional, cell-based, Homo sapiens
Description: SANGER: Inhibition of human MOLT-16 cell growth in a cell viability assay.

Row | Compound | IC50
24 | O=C1NC(=O)c2c1c(-c1ccccc1Cl)cc1[nH]c3ccc(O)cc3c21 | 1420 nM

What follows are molecules tested on MPP-89 (assay: cells). Details: Homo sapiens, MPP-89.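 Note: growth inhibition of human MPP-89 cells, read out with a cell viability assay.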
Format: functional, cell-based, Homo sapiens
Description: SANGER: Inhibition of human MPP-89 cell growth in a cell viability assay.

Row | Compound | IC50
25 | O=C1NC(=O)c2c1c(-c1ccccc1Cl)cc1[nH]c3ccc(O)cc3c21 | > 2000 nM

These molecules were tested on MZ2-MEL (assay: cells). Details: Homo sapiens, MZ2-MEL.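 Note: growth inhibition of MZ2-MEL cells read out with a cell viability assay.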
Format: functional, cell-based, Homo sapiens
Description: SANGER: Inhibition of human MZ2-MEL cell growth in a cell viability assay.

Row | Compound | IC50
26 | O=C1NC(=O)c2c1c(-c1ccccc1Cl)cc1[nH]c3ccc(O)cc3c21 | > 2000 nM

The molecules below were run on NB5 (assay: cells). Details: Homo sapiens, NB5.
Format: functional, cell-based, Homo sapiens
Description: SANGER: Inhibition of human NB5 cell growth in a cell viability assay.

Row | Compound | IC50
27 | O=C1NC(=O)c2c1c(-c1ccccc1Cl)cc1[nH]c3ccc(O)cc3c21 | > 2000 nM

These molecules were tested on NB6 (assay: cells). Details: Homo sapiens, NB6.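 Note: growth inhibition of NB6 cells, read out by a cell viability assay.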
Format: functional, cell-based, Homo sapiens
Description: SANGER: Inhibition of human NB6 cell growth in a cell viability assay.

Row | Compound | IC50
28 | O=C1NC(=O)c2c1c(-c1ccccc1Cl)cc1[nH]c3ccc(O)cc3c21 | > 2000 nM

The molecules below were run on NCI-H1304 (assay: cells). Details: Homo sapiens, NCI-H1304.
Format: functional, cell-based, Homo sapiens
Description: SANGER: Inhibition of human NCI-H1304 cell growth in a cell viability assay.

Row | Compound | IC50
29 | O=C1NC(=O)c2c1c(-c1ccccc1Cl)cc1[nH]c3ccc(O)cc3c21 | > 2000 nM

What follows are molecules tested on NCI-H1395 (assay: cells). Details: Homo sapiens, NCI-H1395.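 Note: cell viability assay read-out quantifying reduced proliferation of human NCI-H1395 cells.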
Format: functional, cell-based, Homo sapiens
Description: SANGER: Inhibition of human NCI-H1395 cell growth in a cell viability assay.

Row | Compound | IC50
30 | O=C1NC(=O)c2c1c(-c1ccccc1Cl)cc1[nH]c3ccc(O)cc3c21 | > 2000 nM

These molecules were tested on NCI-H2126 (assay: cells). Details: Homo sapiens, NCI-H2126.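 Note: growth inhibition of the cancer cell line, determined with a cell viability readout.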
Format: functional, cell-based, Homo sapiens
Description: SANGER: Inhibition of human NCI-H2126 cell growth in a cell viability assay.

Row | Compound | IC50
31 | O=C1NC(=O)c2c1c(-c1ccccc1Cl)cc1[nH]c3ccc(O)cc3c21 | > 2000 nM

Each molecule was assayed on NCI-H747 (assay: cells). Details: Homo sapiens, NCI-H747.
Format: functional, cell-based, Homo sapiens
Description: SANGER: Inhibition of human NCI-H747 cell growth in a cell viability assay.

Row | Compound | IC50
32 | O=C1NC(=O)c2c1c(-c1ccccc1Cl)cc1[nH]c3ccc(O)cc3c21 | > 2000 nM

The molecules below were run on NKM-1 (assay: cells). Details: Homo sapiens, NKM-1.
Format: functional, cell-based, Homo sapiens
Description: SANGER: Inhibition of human NKM-1 cell growth in a cell viability assay.

Row | Compound | IC50
33 | O=C1NC(=O)c2c1c(-c1ccccc1Cl)cc1[nH]c3ccc(O)cc3c21 | > 2000 nM

The molecules below were run on OCUB-M (assay: cells). Details: Homo sapiens.
Format: functional, cell-based
Description: SANGER: Inhibition of human OCUB-M cell growth in a cell viability assay.

Row | Compound | IC50
34 | O=C1NC(=O)c2c1c(-c1ccccc1Cl)cc1[nH]c3ccc(O)cc3c21 | > 2000 nM

The molecules below were run on RCC10RGB (assay: cells). Details: Homo sapiens, RCC10RGB.
Format: functional, cell-based, Homo sapiens
Description: SANGER: Inhibition of human RCC10RGB cell growth in a cell viability assay.

Row | Compound | IC50
35 | O=C1NC(=O)c2c1c(-c1ccccc1Cl)cc1[nH]c3ccc(O)cc3c21 | > 2000 nM

Each molecule was assayed on RXF 393 (assay: cells). Details: Homo sapiens, RXF 393.
Format: functional, cell-based, Homo sapiens
Description: SANGER: Inhibition of human RXF393 cell growth in a cell viability assay.

Row | Compound | IC50
36 | O=C1NC(=O)c2c1c(-c1ccccc1Cl)cc1[nH]c3ccc(O)cc3c21 | > 2000 nM

Each molecule was assayed on SF-126 (assay: cells). Details: Homo sapiens, SF-126.
Format: functional, cell-based, Homo sapiens
Description: SANGER: Inhibition of human SF126 cell growth in a cell viability assay.

Row | Compound | IC50
37 | O=C1NC(=O)c2c1c(-c1ccccc1Cl)cc1[nH]c3ccc(O)cc3c21 | > 2000 nM

These molecules were tested on SH-4 (assay: cells). Details: Homo sapiens.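 Note: growth inhibition of SH-4 cells, read out with a cell viability assay.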
Format: functional, cell-based
Description: SANGER: Inhibition of human SH-4 cell growth in a cell viability assay.

Row | Compound | IC50
38 | O=C1NC(=O)c2c1c(-c1ccccc1Cl)cc1[nH]c3ccc(O)cc3c21 | 1650 nM

What follows are molecules tested on SK-MEL-1 (assay: cells). Details: Homo sapiens, SK-MEL-1.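 Note: growth inhibition of human SK-MEL-1 cells, read out by a cell viability assay.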
Format: functional, cell-based, Homo sapiens
Description: SANGER: Inhibition of human SK-MEL-1 cell growth in a cell viability assay.

Row | Compound | IC50
39 | O=C1NC(=O)c2c1c(-c1ccccc1Cl)cc1[nH]c3ccc(O)cc3c21 | > 2000 nM

Each molecule was assayed on SNU-C2B (assay: cells). Details: Homo sapiens.
Format: functional, cell-based
Description: SANGER: Inhibition of human SNU-C2B cell growth in a cell viability assay.

Row | Compound | IC50
40 | O=C1NC(=O)c2c1c(-c1ccccc1Cl)cc1[nH]c3ccc(O)cc3c21 | > 2000 nM

These molecules were tested on ALL-PO (assay: cells). Details: Homo sapiens, ALL-PO.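 Note: growth inhibition of ALL-PO cells, read out by a cell viability assay.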
Format: functional, cell-based, Homo sapiens
Description: SANGER: Inhibition of human ALL-PO cell growth in a cell viability assay.

Row | Compound | IC50
41 | O=C1NC(=O)c2c1c(-c1ccccc1Cl)cc1[nH]c3ccc(O)cc3c21 | > 2000 nM

These molecules were tested on BB49-HNC (assay: cells). Details: Homo sapiens, BB49-HNC.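 Note: cell viability assay read-out, reported as inhibition of BB49-HNC cell growth.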
Format: functional, cell-based, Homo sapiens
Description: SANGER: Inhibition of human BB49-HNC cell growth in a cell viability assay.

Row | Compound | IC50
42 | O=C1NC(=O)c2c1c(-c1ccccc1Cl)cc1[nH]c3ccc(O)cc3c21 | > 2000 nM

The molecules below were run on BE-13 (assay: cells). Details: Homo sapiens, BE-13.
Format: functional, cell-based, Homo sapiens
Description: SANGER: Inhibition of human BE-13 cell growth in a cell viability assay.

Row | Compound | IC50
43 | O=C1NC(=O)c2c1c(-c1ccccc1Cl)cc1[nH]c3ccc(O)cc3c21 | > 2000 nM

These molecules were tested on C2BBe1 (assay: cells). Details: Homo sapiens, C2BBe1.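 Note: growth inhibition of C2BBe1 cells, read out through a viability assay.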
Format: functional, cell-based, Homo sapiens
Description: SANGER: Inhibition of human C2BBe1 cell growth in a cell viability assay.

Row | Compound | IC50
44 | O=C1NC(=O)c2c1c(-c1ccccc1Cl)cc1[nH]c3ccc(O)cc3c21 | > 2000 nM

The molecules below were run on TE-10 (assay: cells). Details: Homo sapiens, TE-10.
Format: functional, cell-based, Homo sapiens
Description: SANGER: Inhibition of human TE-10 cell growth in a cell viability assay.

Row | Compound | IC50
45 | O=C1NC(=O)c2c1c(-c1ccccc1Cl)cc1[nH]c3ccc(O)cc3c21 | > 2000 nM

What follows are molecules tested on TGBC24TKB (assay: cells). Details: Homo sapiens.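 Note: growth inhibition of human TGBC24TKB cells, read out with a cell viability assay.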
Format: functional, cell-based
Description: SANGER: Inhibition of human TGBC24TKB cell growth in a cell viability assay.

Row | Compound | IC50
46 | O=C1NC(=O)c2c1c(-c1ccccc1Cl)cc1[nH]c3ccc(O)cc3c21 | > 2000 nM

The molecules below were run on VA-ES-BJ (assay: cells). Details: Homo sapiens, VA-ES-BJ.
Format: functional, cell-based, Homo sapiens
Description: SANGER: Inhibition of human VA-ES-BJ cell growth in a cell viability assay.

Row | Compound | IC50
47 | O=C1NC(=O)c2c1c(-c1ccccc1Cl)cc1[nH]c3ccc(O)cc3c21 | 1500 nM

The molecules below were run on no-11 (assay: cells). Details: Homo sapiens.
Format: functional, cell-based, Homo sapiens
Description: SANGER: Inhibition of human no-11 cell growth in a cell viability assay.

Row | Compound | IC50
48 | O=C1NC(=O)c2c1c(-c1ccccc1Cl)cc1[nH]c3ccc(O)cc3c21 | > 2000 nM

What follows are molecules tested on COLO-684 (assay: cells). Details: Homo sapiens, COLO-684.
Format: functional, cell-based, Homo sapiens
Description: SANGER: Inhibition of human COLO-684 cell growth in a cell viability assay.

Row | Compound | IC50
49 | O=C1NC(=O)c2c1c(-c1ccccc1Cl)cc1[nH]c3ccc(O)cc3c21 | > 2000 nM
